Measured values published in US20110294799A1, “Organic Compounds” (NOVARTIS AG, priority 2007, published 2011).

Columns and labels:
[1] = molecular target: T1, GABA-A alpha1 receptor (alpha 1 subunit together with a beta and a gamma subunit) (Homo sapiens, UniProt P14867+P18507); assay: GABA-A receptor modulation, voltage-sensitive dye fluorescence in transfected eukaryotic cell line (alpha1); assay type: cell-based; details: compounds at 3 μM, sub-maximal concentration of GABA (EC20); for activation at 3 µM: read-out: alpha1 % mod (percentage of increase of the fluorescent signal compared to signal without the agent)
T1 construct: expressed in transfected cells
T1 sequence (P14867 28-456): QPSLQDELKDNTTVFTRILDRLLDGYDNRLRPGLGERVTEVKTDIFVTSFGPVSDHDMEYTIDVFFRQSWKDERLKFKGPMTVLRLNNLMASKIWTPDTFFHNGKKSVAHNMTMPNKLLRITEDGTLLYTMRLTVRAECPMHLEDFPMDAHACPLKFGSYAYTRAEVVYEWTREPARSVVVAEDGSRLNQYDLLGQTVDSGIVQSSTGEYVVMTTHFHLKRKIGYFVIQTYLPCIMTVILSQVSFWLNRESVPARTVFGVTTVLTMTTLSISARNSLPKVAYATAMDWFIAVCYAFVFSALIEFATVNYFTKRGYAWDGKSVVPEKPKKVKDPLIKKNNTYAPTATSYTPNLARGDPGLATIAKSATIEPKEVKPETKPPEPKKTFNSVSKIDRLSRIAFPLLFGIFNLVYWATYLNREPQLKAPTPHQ
T1 sequence (P47870 25-512 partner limits assumed): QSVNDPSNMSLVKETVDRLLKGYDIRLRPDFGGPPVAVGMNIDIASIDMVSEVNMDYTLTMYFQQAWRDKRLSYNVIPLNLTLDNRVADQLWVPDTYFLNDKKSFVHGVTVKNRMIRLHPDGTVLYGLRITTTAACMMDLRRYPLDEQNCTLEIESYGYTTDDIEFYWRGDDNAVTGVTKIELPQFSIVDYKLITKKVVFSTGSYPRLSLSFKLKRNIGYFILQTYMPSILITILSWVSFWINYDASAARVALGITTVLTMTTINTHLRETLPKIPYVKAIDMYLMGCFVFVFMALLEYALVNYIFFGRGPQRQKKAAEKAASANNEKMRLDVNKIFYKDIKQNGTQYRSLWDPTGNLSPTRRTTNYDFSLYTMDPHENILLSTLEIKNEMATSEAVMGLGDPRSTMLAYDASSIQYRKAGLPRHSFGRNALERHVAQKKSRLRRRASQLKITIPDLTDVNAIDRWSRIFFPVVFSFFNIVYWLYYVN
T1 sequence (P18507 40-467 limits assumed): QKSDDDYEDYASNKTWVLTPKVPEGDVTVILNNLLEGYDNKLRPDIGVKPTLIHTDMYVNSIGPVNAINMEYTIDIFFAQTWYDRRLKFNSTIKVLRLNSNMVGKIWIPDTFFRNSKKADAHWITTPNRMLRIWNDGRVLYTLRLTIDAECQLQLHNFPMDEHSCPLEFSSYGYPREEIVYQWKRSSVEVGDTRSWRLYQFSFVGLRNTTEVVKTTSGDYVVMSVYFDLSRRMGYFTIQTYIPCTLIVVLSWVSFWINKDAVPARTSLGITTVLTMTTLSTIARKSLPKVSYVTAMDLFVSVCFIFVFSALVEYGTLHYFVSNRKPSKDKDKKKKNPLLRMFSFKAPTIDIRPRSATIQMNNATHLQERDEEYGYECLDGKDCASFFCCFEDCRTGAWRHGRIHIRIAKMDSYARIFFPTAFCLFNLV
From the text: (§1) GABA-A receptor modulators show in functional assays a positive modulation of GABA-induced signals. This modulation can be determined in vitro, e.g., at recombinant GABA-A receptors expressed in a mammalian cell line, e.g. by measurement of GABA-A receptor induced changes of the trans-membrane voltage, when using a voltage-sensitive dye and a fluorescence detection system (Adkins, C. E., Pillai, G. V., Kerby, J., Bonnert, T. P., Haldon, C., Mckernan, R. M., Gonzalez, J. E., Oades, K., Whiting, P. J. & Simpson, P. B. [2001]. alpha4beta3delta GABA-A receptors characterized by fluorescence resonance energy transfer-derived measurements of membrane potential. J. Biol. Chem., 276, 38934-38939). In this assay, a modulator compound is pre-applied at different concentrations ranging from 0.1 nM to 10 μM to cells expressing GABA-A receptors and loaded with the voltage-sensitive dye, before, or at the same time as, a sub-maximal concentration of GABA (in the range of from 0.1 to 10 μM) is applied to the cells. The fluorescent signal is correlated with the degree of GABA-A receptor channel opening. This allows the quantification of effects induced by the modulator in a functional manner. By expression of different GABA-A receptor subunit combinations, the differential efficacy of a modulator at different GABA-A receptor variants can be tested. Other functional assays include the electrophysiological recording of Xenopus oocytes or mammalian cells expressing respective receptor variants. In addition, ion flux detectors can be used to functionally study GABA-A receptors in heterologous expression systems. The affinity of a compound to the GABA-A receptor can be measured in radioligand binding experiments using reference ligands containing a radioactive element, e.g., tritiated flumazenil, and intact cells or membrane preparations of cells expressing GABA-A receptors.
(§2) Activity and selectivity of a GABA-A receptor modulator according to the invention can, e.g., be determined in vitro as follows: A transfected eukaryotic cell line expressing the alpha1, alpha2 or alpha3 subunit of the GABA-A receptor together with a beta and a gamma subunit of the GABA-A receptor is incubated with a voltage-sensitive dye, and the effects of an agonist (typically GABA) or modulator addition are recorded in a fluorimetric plate reader. The opening of the GABA-A receptor channel and the subsequent flux of anions through it changes the trans-membrane voltage of the transfected cells, leading to a change in the fluorescent signal of the voltage-sensitive dye. In the presence of the agent of the invention, a sub-maximal concentration of GABA (e.g. an EC20 or an EC50) added to transfected cells expressing the alpha1, alpha2 or alpha3 subunit of the GABA-A receptor will elicit an at least 50%, preferably an at least 80%, ideally an at least 100%, increase, of the fluorescent signal, compared to the fluorescent signal obtained without the agent of the invention. In this assay, agents of the invention modulate the GABA-induced response at concentration from about 0.1 to about 10′000 nM.

[2] = molecular target: T2, GABA-A alpha2 receptor (alpha 2 subunit together with a beta and a gamma subunit) (Homo sapiens, UniProt P18507+P47869); assay: GABA-A receptor modulation, voltage-sensitive dye fluorescence in transfected eukaryotic cell line (alpha2); assay type: cell-based; details: compounds at 3 μM, sub-maximal concentration of GABA (EC20); for activation at 3 µM: read-out: alpha2 % mod (percentage of increase of the fluorescent signal compared to signal without the agent)
T2 construct: expressed in transfected cells
T2 sequence (P47869 29-451): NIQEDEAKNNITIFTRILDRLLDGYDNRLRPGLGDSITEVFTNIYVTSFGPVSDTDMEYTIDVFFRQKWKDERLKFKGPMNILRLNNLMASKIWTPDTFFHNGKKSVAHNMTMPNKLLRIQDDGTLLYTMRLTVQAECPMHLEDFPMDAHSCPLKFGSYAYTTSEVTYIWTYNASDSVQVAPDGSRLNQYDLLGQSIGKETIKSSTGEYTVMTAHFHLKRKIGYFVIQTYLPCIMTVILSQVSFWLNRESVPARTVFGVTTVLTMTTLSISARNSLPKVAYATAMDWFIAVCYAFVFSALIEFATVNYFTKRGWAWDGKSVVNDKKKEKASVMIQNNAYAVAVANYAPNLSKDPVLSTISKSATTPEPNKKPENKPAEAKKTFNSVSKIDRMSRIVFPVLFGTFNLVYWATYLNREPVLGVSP
T2 sequence (P47870 25-512 partner limits assumed): T1 sequence (P47870 25-512 partner limits assumed)
T2 sequence (P18507 40-467 limits assumed): T1 sequence (P18507 40-467 limits assumed)
From the text: as §1, §2

Row | Compound | activation at 3 µM [1] [%] | activation at 3 µM [2] [%] | alpha1 % mod (percentage of increase of the fluorescent signal compared to signal without the agent) [1] [% mod] | alpha2 % mod (percentage of increase of the fluorescent signal compared to signal without the agent) [2] [% mod]
1 | COc1ccc(-n2nc3c(cnc4ccccc43)c2OCc2ccncc2)cc1 [Example 60, 2-(4-methoxyphenyl)-3-(pyridin-4-ylmethoxy)-2H-pyrazolo[4,3-c]quinoline] | 64 | 177 | – | –
2 | COc1ccc(-n2nc3c(cnc4ccccc43)c2OCc2ccccc2Cl)cc1 [Example 61, 3-[(2-chlorobenzyl)oxy]-2-(4-methoxyphenyl)-2H-pyrazolo[4,3-c]quinoline] | 52 | 145 | – | –
3 | COc1ccc(-n2nc3c(cnc4ccccc43)c2OCc2ccc(Cl)nc2)cc1 [Example 62, 3-[(6-chloropyridin-3-yl)methoxy]-2-(4-methoxypheny1)-2H-pyrazolo[4,3-c]quinoline] | – | – | 55 | 141
4 | Fc1ccc(-n2nc3c(cnc4ccccc43)c2OCc2ccccc2Cl)cc1 [Example 63, 3-[(2-chlorobenzyl)oxy]-2-(4-fluorophenyl)-2H-pyrazolo[4,3-c]quinoline] | 9 | 60 | – | –
5 | COc1ccc(-n2nc3c(cnc4c(F)c(F)c(F)cc43)c2SCc2ccccc2)cc1 [Example 70, 3-(benzylsulfanyl)-6,7,8-trifluoro-2-(4-methoxyphenyl)-2H-pyrazolo[4,3-c]quinoline] | 188 | 349 | – | –
6 | CC(C)(C)n1nc2c(cnc3ccccc32)c1OCc1ccccc1Br [Example 81, 3-[(2-bromobenzyl)oxy]-2-tert-butyl-2H-pyrazolo[4,3-c]quinoline] | 109 | 205 | – | –
7 | COc1ccc(-n2nc3c(cnc4ccccc43)c2OCc2ccc(Cl)cc2)cc1 [Example 89, 3-(4-Chloro-benzyloxy)-2-(4-methoxy-phenyl)-2H-pyrazolo[4,3-c]quinoline] | 23 | 69 | – | –
8 | Clc1ccc(-n2nc3c(cnc4ccccc43)c2OCC2CC2)cc1 [Example 90, 2-(4-Chloro-phenyl)-3-cyclopropylmethoxy-2H-pyrazolo[4,3-c]quinoline] | 60 | 164 | – | –
9 | Clc1ccc(-n2nc3c(cnc4ccccc43)c2OCC2CCCC2)cc1 [Example 91, 2-(4-Chloro-phenyl)-3-cyclopentylmethoxy-2H-pyrazolo[4,3-c]quinoline] | 55 | 84 | – | –
10 | Clc1ccc(-n2nc3c(cnc4ccccc43)c2OC2CCCC2)cc1 [Example 92, 2-(4-Chloro-phenyl)-3-cyclopentyloxy-2H-pyrazolo[4,3-c]quinoline] | 27 | 57 | – | –
11 | Clc1ccc(-n2nc3c(cnc4ccccc43)c2OCCN2CCOCC2)cc1 [Example 93, 2-(4-Chloro-phenyl)-3-(2-morpholin-4-yl-ethoxy)-2H-pyrazolo[4,3-c]quinoline] | 17 | 81 | – | –
12 | Clc1ccc(-n2nc3c(cnc4ccc(-n5ccnc5)cc43)c2OCC2CC2)cc1 [Example 96, 2-(4-Chloro-phenyl)-3-cyclopropylmethoxy-8-imidazol-1-yl-2H-pyrazolo[4,3-c]quinoline] | 119 | 162 | – | –
13 | Clc1ccc(-n2nc3c(cnc4ccccc43)c2OCC2CCO2)cc1 (stereo not shown) [Example 98, 2-(4-Chloro-phenyl)-3-(oxetan-2-ylmethoxy)-2H-pyrazolo[4,3-c]quinoline] | 53 | 97 | – | –
14 | CN1CCN(CCOc2c3cnc4ccccc4c3nn2-c2ccc(Cl)cc2)CC1 [Example 99] | – | – | 58 | 121
15 | Clc1ccc(-n2nc3c(cnc4ccc(-n5ccnc5)cc43)c2OCC2CCCC2)cc1 [Example 113, 2-(4-Chloro-phenyl)-3-cyclopentylmethoxy-8-imidazol-1-yl-2H-pyrazolo[4,3-c]quinoline] | 63 | 88 | – | –
16 | Clc1ccc(-n2nc3c(cnc4ccc(-n5ccnc5)cc43)c2OCCc2ccccc2Cl)cc1 [Example 114, 2-(4-Chloro-phenyl)-3-[2-(2-chloro-phenyl)-ethoxy]-8-imidazol-1-yl-2H-pyrazolo[4,3-c]quinoline] | 108 | 129 | – | –
17 | Clc1ccc(-n2nc3c(cnc4ccc(Br)cc43)c2OCc2ccccc2Cl)cc1 [Example 115, 8-Bromo-3-(2-chloro-benzyloxy)-2-(4-chloro-phenyl)-2H-pyrazolo[4,3-c]quinoline] | 26 | 66 | – | –
